Source: ChEMBL document CHEMBL3046649, “Fungitoxic and Phytotoxic Activities of Cinnamic Acid Esters and Amides” (2000)

Assays:
[1] = tested on: Brassica rapa subsp. chinensis; experiment: whole plant or invertebrate; assay type: functional; settings: 72 h, read-out: GI
Description: Phytotoxicity against Brassica rapa subsp. chinensis assessed as growth inhibition of radicle at 100 ppm treated to seeds after 3 days

Pythium [2] = experiment: microbe, parasite or virus in culture; assay type: functional; settings: read-out: GI
Description: Fungitoxic activity against Pythium sp. assessed as mycelial growth inhibition at 100 ppm after 4 to 5 days by agar dilution method

Athelia rolfsii [3] = experiment: Fungitoxic activity against Athelia rolfsii assessed as mycelial growth inhibition at 10 ppm after 4 to 5 days by agar dilution method; assay type: functional; settings: Agroathelia rolfsii; read-out: GI
Athelia rolfsii [4] = experiment: microbe, parasite or virus in culture; assay type: functional; settings: Agroathelia rolfsii, read-out: GI
Description: Fungitoxic activity against Athelia rolfsii assessed as mycelial growth inhibition at 100 ppm after 4 to 5 days by agar dilution method

Pythium [5] = experiment: Fungitoxic activity against Pythium sp. assessed as mycelial growth inhibition at 10 ppm after 4 to 5 days by agar dilution method; settings: read-out: GI
[6] = tested on: Brassica rapa subsp. chinensis; experiment: whole plant or invertebrate; assay type: functional; settings: 72 h, read-out: GI; remark: listed apart in the source
Description: Phytotoxicity against Brassica rapa subsp. chinensis assessed as growth inhibition of hypocotyl at 100 ppm treated to seeds after 3 days

Structure (SMILES)	inhibition of growth at 100 ppm [1]	inhibition of growth at 100 ppm (Pythium [2])	inhibition of growth at 10 ppm (Athelia rolfsii [3])	inhibition of growth at 100 ppm (Athelia rolfsii [4])	inhibition of growth at 10 ppm (Pythium [5])	inhibition of growth at 100 ppm [6]
CCCCCOC(=O)/C=C/c1ccc(Cl)cc1Cl [PENTYL 3-(2,4-DICHLOROPHENYL)ACRYLATE]	0%	43%	14%	75%	9%	22%
CC(C)OC(=O)/C=C/c1ccccc1 [ISOPROPYL CINNAMATE]	2%	82%	41%	86%	5%	2%
O=C(/C=C/c1ccc(Cl)cc1)OCCOc1ccccc1	0%	54%	16%	83%	9%	30%
CCCNC(=O)/C=C/c1ccc(Cl)cc1 [3-(4-CHLOROPHENYL)-N-PROPYLACRYLAMIDE]	64%	88%	32%	97%	30%	43%
O=C(/C=C/c1ccc(Cl)cc1Cl)OCCOc1ccccc1	8%	59%	14%	72%	14%	33%
CCCCCOC(=O)/C=C/c1ccc(Cl)cc1 [PENTYL 3-(4-CHLOROPHENYL)ACRYLATE]	22%	58%	20%	82%	17%	27%
CCCOC(=O)/C=C/c1ccc(C(C)C)cc1 [PROPYL 3-(4-ISOPROPYLPHENYL)ACRYLATE]	5%	68%	43%	89%	13%	8%
C=CCNC(=O)/C=C/c1ccccc1	64%	52%	6%	90%	20%	63%
CC(C)NC(=O)/C=C/c1ccccc1 [N-ISOPROPYLCINNAMAMIDE]	76%	47%	17%	96%	0%	39%
CC(C)=CCCC(C)CCOC(=O)/C=C/c1ccc(C(C)C)cc1 (stereo not drawn) [3,7-DIMETHYLOCT-6-ENYL 3-(4-ISOPROPYLPHENYL)ACRYLATE]	0%	69%	9%	87%	12%	39%
CC(C)CNC(=O)/C=C/c1ccc(Cl)cc1 [3-(4-CHLOROPHENYL)-N-ISOBUTYLACRYLAMIDE]	69%	73%	33%	89%	50%	43%
CCC(C)NC(=O)/C=C/c1ccccc1 (stereo not drawn) [N-SEC-BUTYLCINNAMAMIDE]	77%	47%	35%	95%	0%	56%
CCCOC(=O)/C=C/c1ccccc1 [PROPYL CINNAMATE]	7%	95%	40%	86%	18%	31%
CCOC(=O)/C=C/c1ccccc1 [ETHYL CINNAMATE]	0%	57%	36%	63%	14%	26%
CC(C)=CCCC(C)CCOC(=O)/C=C/c1ccc(Cl)cc1 (stereo not drawn) [3,7-DIMETHYLOCT-6-ENYL 3-(4-CHLOROPHENYL)ACRYLATE]	15%	64%	19%	83%	8%	26%
CCOC(=O)/C=C/c1ccc(Cl)cc1 [ETHYL 3-(4-CHLOROPHENYL)ACRYLATE]	47%	99%	19%	97%	8%	43%
CC(C)OC(=O)/C=C/c1ccc(C(C)C)cc1 [ISOPROPYL 3-(4-ISOPROPYLPHENYL)ACRYLATE]	0%	70%	42%	92%	21%	18%

Structure (SMILES)	inhibition of growth at 100 ppm [1]	inhibition of growth at 100 ppm (Pythium [2])	inhibition of growth at 10 ppm (Athelia rolfsii [3])	inhibition of growth at 100 ppm (Athelia rolfsii [4])	inhibition of growth at 10 ppm (Pythium [5])	inhibition of growth at 100 ppm [6]
COC(=O)/C=C/c1ccc(C(C)C)cc1	21%	82%	35%	97%	7%	38%
CCCCNC(=O)/C=C/c1ccc(Cl)cc1 [N-BUTYL-3-(4-CHLOROPHENYL)ACRYLAMIDE]	62%	80%	58%	93%	45%	44%
CCCCCNC(=O)/C=C/c1ccccc1	76%	78%	18%	87%	23%	60%
CCCOC(=O)/C=C/c1ccc(Cl)cc1 [PROPYL 3-(4-CHLOROPHENYL)ACRYLATE]	78%	87%	41%	97%	8%	40%
CC(C)c1ccc(/C=C/C(=O)OCCOc2ccccc2)cc1	0%	46%	8%	64%	3%	32%
CC(C)NC(=O)/C=C/c1ccc(Cl)cc1 [3-(4-CHLOROPHENYL)-N-ISOPROPYLACRYLAMIDE]	57%	45%	66%	94%	20%	26%
CC(C)=CCC/C(C)=C/COC(=O)/C=C/c1ccc(Cl)cc1	48%	86%	17%	94%	9%	41%
CCCCCOC(=O)/C=C/c1ccc(C(C)C)cc1 [PENTYL 3-(4-ISOPROPYLPHENYL)ACRYLATE]	0%	51%	13%	79%	3%	29%
CC(C)CNC(=O)/C=C/c1ccc(C(C)C)cc1 [N-ISOBUTYL-3-(4-ISOPROPYLPHENYL)ACRYLAMIDE]	45%	58%	37%	42%	42%	34%
CCCNC(=O)/C=C/c1ccc(C(C)C)cc1	52%	84%	28%	88%	41%	30%
CCCCNC(=O)/C=C/c1ccc(C(C)C)cc1 [N-BUTYL-3-(4-ISOPROPYLPHENYL)ACRYLAMIDE]	51%	90%	28%	92%	37%	41%
CCC(C)NC(=O)/C=C/c1ccc(Cl)cc1 (stereo not drawn) [N-SEC-BUTYL-3-(4-CHLOROPHENYL)ACRYLAMIDE]	61%	43%	44%	88%	41%	40%
C=CCc1ccc(OC(=O)/C=C/c2ccc(Cl)cc2Cl)c(OC)c1 [4-ALLYL-2-METHOXYPHENYL 3-(2,4-DICHLOROPHENYL)ACRYLATE]	6%	67%	27%	87%	23%	28%
CC(C)(C)NC(=O)/C=C/c1ccccc1 [N-TERT-BUTYLCINNAMAMIDE]	73%	71%	26%	92%	14%	34%
CCCCNC(=O)/C=C/c1ccccc1 [N-BUTYLCINNAMAMIDE]	71%	84%	45%	94%	33%	50%
C=CCc1ccc(OC(=O)/C=C/c2ccc(C(C)C)cc2)c(OC)c1 [4-ALLYL-2-METHOXYPHENYL 3-(4-ISOPROPYLPHENYL)ACRYLATE]	0%	62%	8%	86%	8%	40%
